# Laboratory results taken from paper PMC9728906 (2022).
# Assays:
# [1] = tested on: human telomeric G-quadruplex DNA, AG3(TTAGGG)3 (DNA, G4) AGGGTTAGGGTTAGGGTTAGGG; assay: CD melting at 293 nm; conditions: 100 mM KCl; 10 mM Tris-HCl, 1 mM Na2EDTA, pH 7.4, 10% ethylene glycol; equimolar 3.93 µM compound and DNA (1:1)
# [2] = tested on: fluorescein-labelled telomeric G-quadruplex DNA (DNA, G4) AGGGTTAGGGTTAGGGTTAGGG; assay: fluorescein fluorescence quenching; conditions: 100 mM KCl; 10 mM Tris-HCl, 1 mM Na2EDTA, pH 7.4; 2 µM DNA; more than 90% quenching
# [3] = tested on: human telomeric G-quadruplex DNA, AG3(TTAGGG)3 (DNA, G4) AGGGTTAGGGTTAGGGTTAGGG; assay: fluorescence titration, Scatchard, two-line linear fit; conditions: 100 mM KCl; 10 mM Tris-HCl, 1 mM Na2EDTA, pH 7.4, ≤10% ethylene glycol; 5 µM compound; site 1 of 2
# [4] = tested on: human telomeric G-quadruplex DNA, AG3(TTAGGG)3 (DNA, G4) AGGGTTAGGGTTAGGGTTAGGG; assay: fluorescence titration, modified Scatchard, non-linear fit (r versus Cf); conditions: 100 mM KCl; 10 mM Tris-HCl, 1 mM Na2EDTA, pH 7.4, ≤10% ethylene glycol; 5 µM compound; average over sites
SMILES,ΔTm [1],binding [2],K1 [3],K [4]
COc1ccc(CCCn2ncc3c2nc(N)n2nc(-c4ccco4)nc32)cc1,9.6 °C,yes,1.55e+07 M⁻¹,700000 M⁻¹
CN(C)c1cc2c(Nc3ccc4c(cnn4Cc4ccccc4)c3)ncnc2cn1,9.9 °C,yes,1.3e+08 M⁻¹,2.65e+06 M⁻¹
